Experimental data taken from PMC5466365 (Journal of the American Chemical Society, 2016).

Columns and labels:
Format in all cases: biochemical
[1] = target: T1, MeHNL (Manihot esculenta, UniProt P52705); test: benzaldehyde release, A280; settings: 50 mM citrate pH 5.0
[2] = target: T2, HbHNL (Hevea brasiliensis, UniProt P52704); test: benzaldehyde release, A280; settings: 50 mM citrate pH 5.0
[3] = target: T2, HbHNL; settings: 5 mM citrate phosphate pH 5
[4] = target: T1, MeHNL; settings: 5 mM citrate phosphate pH 5

T2 sequence (P52704 whole entry): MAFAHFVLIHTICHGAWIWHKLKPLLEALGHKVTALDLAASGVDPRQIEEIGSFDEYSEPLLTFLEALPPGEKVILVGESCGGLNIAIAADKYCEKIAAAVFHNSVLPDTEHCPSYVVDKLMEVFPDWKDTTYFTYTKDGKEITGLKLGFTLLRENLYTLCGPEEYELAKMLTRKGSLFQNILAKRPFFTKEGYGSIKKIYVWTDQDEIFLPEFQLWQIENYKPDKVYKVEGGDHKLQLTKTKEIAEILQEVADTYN
T1 sequence (P52705 2-258): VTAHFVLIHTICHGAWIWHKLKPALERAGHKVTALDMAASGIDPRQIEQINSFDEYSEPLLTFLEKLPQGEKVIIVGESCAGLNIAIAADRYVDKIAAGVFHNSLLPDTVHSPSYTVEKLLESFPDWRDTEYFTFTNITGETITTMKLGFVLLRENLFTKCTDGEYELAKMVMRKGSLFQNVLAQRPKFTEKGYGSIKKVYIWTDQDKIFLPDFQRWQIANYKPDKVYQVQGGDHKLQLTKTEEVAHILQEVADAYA

Row | SMILES | benzaldehyde release, A280 [1] | benzaldehyde release, A280 [2] | HCN release, modified König reaction [3] | HCN release, modified König reaction [4]
1 | N#CC(O)c1ccccc1 (racemic) [mandelonitrile] | They also efficiently cleaved their unnatural substrate mandelonitrile | They also efficiently cleaved their unnatural substrate mandelonitrile |  | 
2 | CC(C)(O)C#N [acetone cyanohydrin] |  |  | The best substrate is the natural one, acetone cyanohydrin | The best substrate is the natural one, acetone cyanohydrin
